Test results taken from patent publication US20120035203A1, “BUTACLAMOL FOR THE TREATMENT OF AMYOTROPHIC LATERAL SCLEROSIS” (CAMBRIA PHARMACEUTICALS, INC., priority 2009, published 2012).
Entries after “also recorded” stand apart in the source; their conditions may differ. Peptide text beside a SMILES is read from it. * marks the point of attachment. Cbz = O=C(OCc1ccccc1)*

Experiments:
[1] = system: PC12 cells that express mutant G93A SOD1 as a YFP fusion protein; assay: high throughput cytotoxicity protection assay; details: for EC50: Rattus norvegicus, PC-12, read-out: Protection ED50; for Protection Efficacy Conc.: concentration at which the % viability is given; for Activity in Protection Assay: neuroleptic agent screening; for protection of cell viability from MG132: 100 nM MG132 co-treatment
Experimental: This idea was tested by examining the sensitivity of PC12 cells to SOD1 aggregates in the presence and absence of proteasome inhibitor MG132. PC12 cells expressing no SOD1, wild type SOD1, G85R SOD1 or G93A SOD1 were grown with or without MG132 (FIG. 1). […] The ability of protein aggregates to induce cell death was examined by treating G93A SOD1-expressing cells with MG132 for 24 h, removing the MG132 by washing and assaying cell viability after another 24 h.
PC12 cells expressing G93A SOD1 were treated with 100 nM MG132 with or without co-treatment with geldanamycin or radicicol.

[2] = system: PC12 cells expressing G85R SOD1; assay: mutant SOD1 direct protein aggregation assay; type: cell-based
Experimental: 4) Compounds could act directly on SOD1 in a manner that prevents mutant SOD1 aggregation. These possibilities were tested using an assay that directly measures protein aggregation. In addition, unlike the high throughput cytotoxicity protection assay, the protein aggregation assay is based on G85R SOD1; this broadens the scope of the screening strategy, and should eliminate compounds with highly specific activity (i.e., G93A SOD1 limited) against protein aggregation.
The identification of a positive control is a crucial step in assay development. Thus, PC12 cells expressing G85R or G93A mutant SOD1 were treated with MG132 to induce protein aggregation, and then co-treated with candidate chemical suppressors of protein aggregation.
To allow this assay to be used in a high-throughput manner, a Cellomics Arrayscan® high content microscopy system was used for screening and quantification. […] Because the most robust high content assays measure events on a per cell basis, it was necessary to select a fluorescent stain that marks whole cells to be used with a compatible stain that marks intracellular structures.

cellular toxicity = type: cell-based
Excerpt: Butaclamol is a diasteriomer and the two different isomeric forms can be physically separated.

[3] = system: G93A SOD1 transgenic mice; assay: transgenic G93A SOD1 ALS mouse model (open field, survival, neuropathology); type: in vivo; details: for Average life span: untreated 125.1±3.8
Excerpt: Subjects. […] The development of transgenic mice expressing G93A human SOD1 as a mouse model for the human disease has been regarded as a major breakthrough for development of ALS therapeutics. G93A SOD1 transgenic mice develop progressive hind limb weakness, muscle wasting, and neuropathological sequelae similar to those observed in patients with both sporadic and familial ALS. […] In addition, motor performance deteriorates as the disease progresses. The G93A SOD1 mouse model has played a prominent role in studying disease progression and especially for testing potential therapeutic agents, the latter in part because these animals have a shortened life span of approximately 126 days. In the present study, G93A SOD1 mice and littermate controls are bred from existing colonies at the Bedford VA Medical Hospital. The male G93A SOD1 mice are mated with B6SJL females and the offspring are genotyped by PCR using tail DNA. The number of SOD1 transgenes are assessed by PCR to ensure that transgene copy number remains constant. Mice are housed in micro-isolator cages in complete barrier facilities, and all studies are performed in these facilities. A 12 hour light-dark cycle is maintained and animals are given free access to food and water. Control and transgenic mice of the same age (±2 days) and from the same ‘f generation will be selected from multiple litters to form experimental cohorts (n=20 per group). Standardized criteria for age and parentage are used for placing individual mice into experimental groups/cohorts. Wild type mice are used for initial toxicity, tolerability, and pharmacokinetic studies and ALS mice are used for one-month tolerability studies.
Tolerability, Dosing, and Pharmacokinetics. The tolerable dose range and LD50 for butaclamol was determined in wild type mice by increasing the dose b.i.d. one-fold each injection. The route of administration was via i.p. administration, which was previously reported to produce robust effects in behavioral pharmacology studies, and starting dose range was guided by these prior studies (Lippmann et al., Life Sciences 16, 213, (1975); Humber et al., Mol. Pharmacol. 11, 833, (1975); Voith and Herr, Psychopharmacologia 42, 11, (1975)). One goal was to select a range of doses for the efficacy study starting ten fold below the maximum tolerated dose. Initial pharmacokinetic (pK) studies were conducted by giving animals a single dose, sacrificing them after 30 min, 1 h, 2 h, 4 h, 6 h, and 12 h, and dissecting brains and spinal cords and determining drug concentration in the target tissue. Drug steady-state level was determined in animals that had been dosed for 1 week prior to sacrifice. The range of dosing levels of 0.01, 0.1, and 1 mg/kg once a day were administered throughout the lives of the G93A mice.
Behavioral pharmacology. Behavioral testing for the transgenic G93A SOD1 mice were performed during the light phase of the diurnal cycle since these mice are sufficiently active during that time. Measurements were made for 30 minutes after 10 minutes of acclimation to the box (Opto-Varimex Unit, Columbus Instruments, Columbus, Ohio, USA). Counts of horizontal and vertical motion activity were monitored and quantitative analysis of locomotor activity (resting and ambulatory times), were assessed. The open field box was cleaned before testing each mouse. Each 30 minutes of testing was analyzed as three periods of 10 minute intervals to study the influence of novelty and measured behavior. Mice were coded and investigators were blinded to the genotype and analysis. Testing started on week 4 and performed every other week until the mice could no longer participate.
Efficacy studies. Efficacy was measured using endpoints that clearly indicate neuroprotective function. These include amelioration of degenerative changes in the spinal cord, improved motor function, and prolonged survival. […]

G93A mice = assay: climbing assay for extrapyramidal effects; type: in vivo, mouse; details: 0.01, 0.1, 1 mg/kg
Excerpt: A climbing assay was used to test for extrapyramidal effects.

[4] = system: healthy volunteers and chronic schizophrenic patients; details: cited from earlier work
[5] = system: PC12 cells expressing G93A mutant SOD1; assay: MG132-induced SOD1 protein aggregation; type: cell-based
Experimental: (§1) In PC12 cells that express wild-type SOD1, SOD1 was diffusely localized throughout the cell (Matsumoto et al. J. Cell. Biol 2005, 171(1), 75-85). […] Therefore, these effects are likely to be due to MG132-induced proteasome inhibition, and not due to an off-target effect of MG132.
The identification of a positive control is a crucial step in assay development. Thus, PC12 cells expressing G85R or G93A mutant SOD1 were treated with MG132 to induce protein aggregation, and then co-treated with candidate chemical suppressors of protein aggregation. […] Both compounds induce heat shock transcription factor HSF-1, which in turn induces the heat shock response (FIG. 4). Treatment with radicicol reduced the proportion of cells with aggregates from 75% to 25%, a sufficient difference to allow visual scoring for compounds with efficacy equal to or greater than radicicol.

[6] = system: PC12 cells expressing wild-type SOD1; assay: MG132-induced SOD1 protein aggregation; type: cell-based; details: cells treated with MG132
Excerpt: as §1

[7] = system: PC12 cells expressing no SOD1, wild type SOD1 and G85R SOD1; assay: sensitivity of PC12 cells to proteasome inhibitor (cell viability, calcein-AM); type: cell-based; details: Rattus norvegicus, PC-12
[8] = system: PC12 cells expressing G93A SOD1; assay: as above; type: cell-based
Experimental: FIG. 1. Proteasome inhibition is selectively toxic to PC12 cells expressing mutant G93A SOD1. Cell survival was determined using the viability stain calcein-AM.

[9] = system: [3H] dopamine binding sites; details: cited from earlier work
[10] = system: [3H] haloperidol binding sites; details: cited from earlier work
[11] = high doses; cited from earlier work

## CC(C)(C)[C@]1(O)CCN2C[C@H]3c4ccccc4CCc4cccc(c43)[C@@H]2C1 [Butaclamol]
[1]
  activity in the protection assay: showed activity
  EC50: ~840 nM
  Protection Efficacy Conc.: 15 µM
  Activity in Protection Assay: Active
[1]; rat
  Protection Efficacy % Viability: 80%
[2]
  Aggregation: Inactive
  activity in the aggregation assay: inactive
Cellular toxicity
  IC50: < 25000 nM
[3]; 0.1 mg/kg, 120 days, WT 3.18±0.24×10^6, untreated 2.25±0.49×10^6, P<0.01
  gross lumbar spinal cord (atrophy): 2.97±0.31×10^6 μm^3
[3]; 0.1 mg/kg, 120 days, WT 7.29±0.41×10^5, untreated 5.28±0.63×10^5, P<0.05
  ventral horn of the lumbar spinal cord (atrophy): 6.55±0.37×10^5 μm
[3]; 0.1 mg/kg, 120 days, WT 98.1±12.9, untreated 22.4±15.8, P<0.01
  ventral horn neuronal count: 57.3±18.2
[3]; butaclamol treatment
  reactive astrogliosis (GFAP expression, lumbar spinal cord): ameliorated; also recorded: markedly attenuates reactive astrogliosis
[3]; high dose 1 mg/kg, throughout treatment, vs wild type or untreated G93A
  open field motor activity: significantly reduced motor activity outcome measures
[3]; high dose (1 mg/kg once a day, i.p.)
  Average life span: 123.7 ± 6.2 days
[3]; low dose 0.01 mg/kg, 6 week to 12-13 week
  open field behavior (distance traveled, resting time, ambulatory count, ambulatory time): no significant effect
[3]; low dose (0.01 mg/kg once a day, i.p.)
  Average life span: 129.3 ± 4.1 days
[3]; medium dose 0.1 mg/kg, 6 weeks to 12-13 weeks, 0.1 mg/kg
  open field behavior: not significantly different from wild type mice
[3]; medium dose (0.1 mg/kg once a day, i.p.)
  Average life span: 141.0 ± 5.3 days
[3]; medium dose (0.1 mg/kg)
  extended survival as compared with untreated G93A mice: 12.7%
G93A mice
  extrapyramidal effects: No significant extrapyramidal effects
[4]; healthy volunteers, single and repeated doses up to 32 mg/day
  limiting effects in Phase I: sedation and extrapyramidal effects
[4]; human, in vivo
  dose producing extrapyramidal effects in patients: ≥ 10 mg/day
[4]; long-term, 50 mg/day
  neuroleptic activity in chronic schizophrenic patients: active neuroleptic agent

## CN(C)CCCN1c2ccccc2Sc2ccc(Cl)cc21 [Chlorpromazine]
[1]
  Activity in Protection Assay: Inactive

## CN(C)CC/C=C1/c2ccccc2Sc2ccc(Cl)cc21 [Chlorprothixene]
[1]
  Activity in Protection Assay: Inactive

## CN1CCN(C2=Nc3cc(Cl)ccc3Nc3ccccc32)CC1 [Clozapine]
[1]
  Activity in Protection Assay: Inactive

## O=C(CCCN1CCC(O)(c2ccc(Cl)cc2)CC1)c1ccc(F)cc1 [Haloperidol]
[1]
  Activity in Protection Assay: Inactive

## CN1CCN(C2=Nc3ccccc3Oc3ccc(Cl)cc32)CC1 [Loxapine]
[1]
  Activity in Protection Assay: Inactive

## CC(C)C[C@@H](C=O)NC(=O)[C@H](CC(C)C)NC(=O)[C@H](CC(C)C)NC(=O)OCc1ccccc1 [MG132] (Cbz-Leu-Leu-Leu-aldehyde)
[2]; G85R SOD1 cells treated with MG132
  cells containing protein aggregates: up to 75%
[5]; G93A SOD1 cells following treatment with MG132
  cells with protein aggregates: ~75%
[6]
  protein aggregation in wild-type SOD1 cells: no aggregation was observed
[7]
  IC50: ~400 nM
[8]; 100 nM, 24 hr, any of the cell lines
  toxicity at 24 hr: no toxicity
[8]; 100 nM, 48 hours
  toxicity after 48 hours: selectively toxic to the G93A SOD1 cell line
[8]; G93A SOD1 cells vs no SOD1, wild type, G85R
  fold more sensitive than the other PC12 lines: approximately 5 fold
[8]; Rattus norvegicus, PC-12, read-out: IC50 (cell viability)
  IC50: ~75 nM

## OCCN1CCN(CCCN2c3ccccc3Sc3ccc(Cl)cc32)CC1 [Perphenazine]
[1]
  Activity in Protection Assay: Inactive

## O=c1[nH]c2ccccc2n1C1CCN(CCCC(c2ccc(F)cc2)c2ccc(F)cc2)CC1 [Pimozide]
[1]
  Activity in Protection Assay: Inactive

## C[C@@H]1C[C@H]2O[C@@H]2/C=C\C=C\C(=O)Cc2c(Cl)c(O)cc(O)c2C(=O)O1 [Radicicol]
[1]
  protection of cell viability from MG132: protects
  EC50: ~530 nM
  Protection Efficacy Conc.: 0.7 µM
[1]; listed as radicicol
  protection of cell viability from MG132: increased cell viability in a dose-dependent manner
[1]; at the concentration given
  Protection Efficacy % Viability: 80%
[2]
  Aggregation: Moderate
[2]; G85R or G93A mutant SOD1 cells, co-treated with MG132, 75% without radicicol
  proportion of cells with aggregates: 25%
[2]; G93A SOD1 or G85R SOD1 cells, MG132 co-treatment
  suppression of MG132-induced mutant SOD1 aggregation: decreases mutant SOD1 aggregation
[5]; 100 nM MG132 co-treatment
  formation of protein aggregates: reduced formation of protein aggregates
Cellular toxicity
  IC50: ~30000 nM

## Cc1nc2n(c(=O)c1CCN1CCC(c3noc4cc(F)ccc34)CC1)CCCC2 [Risperidone]
[1]
  Activity in Protection Assay: Inactive

## CN1CCN(CCCN2c3ccccc3Sc3ccc(C(F)(F)F)cc32)CC1 [Trifluoperazine]
[1]
  Activity in Protection Assay: Inactive

## CC(C)C[C@H](NC(=O)[C@H](Cc1ccccc1)NC(=O)c1cnccn1)B(O)O [bortezomib]
[8]; compared with MG132
  sensitivity of PC12 cells to proteasome inhibition: Qualitatively similar results

## (+) butaclamol
[1]
  activity in the protection assay: showed activity
[9]
  times more potent than the (−) isomer: about one hundred
[10]
  times more potent than the (−) isomer: one thousand
[11]
  effect on epinephrine-induced mortality: antagonized epinephrine-induced mortality
